pEC50, pIC50: −log10 of the molar value. Read-outs that look alike come from different tables or passages of the source. Each block holds one molecule with its values, some of them ahead of it.
Experiments:
[1] = biological target: T1, GPR132 (Homo sapiens, UniProt Q9UNW8); conditions: previously reported human microbiome-derived FAA GPCR modulator; read-out: GPR132 agonist at (previously reported); cited from earlier work
T1 sequence (Q9UNW8 1-380): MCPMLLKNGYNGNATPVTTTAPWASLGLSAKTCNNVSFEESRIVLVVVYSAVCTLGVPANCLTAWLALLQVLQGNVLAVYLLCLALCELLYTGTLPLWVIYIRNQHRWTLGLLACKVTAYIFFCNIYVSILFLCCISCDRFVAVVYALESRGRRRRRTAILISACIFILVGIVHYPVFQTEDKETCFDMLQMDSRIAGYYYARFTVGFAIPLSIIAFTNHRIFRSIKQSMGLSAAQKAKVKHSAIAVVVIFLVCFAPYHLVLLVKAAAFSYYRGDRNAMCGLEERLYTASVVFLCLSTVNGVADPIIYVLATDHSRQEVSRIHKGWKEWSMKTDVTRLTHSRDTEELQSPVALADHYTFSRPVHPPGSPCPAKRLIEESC

[2] = test system: C protein of the L. clostridioforme, B. producta, C. celatum, C. sp pathways; test: Substrate panel assay, condensation activity on amine panel; assay type: biochemical, Clostridia; conditions: highest amine substrate of the panel for these four pathways; α-linolenic acid as fatty acid
Protocol: The human gut lumen consists of various fatty acid and amine substrates from different sources that the pathway can incorporate for FAA production. To characterize the preferred product, an in vitro substrate panel assay was set up to investigate substrate selectivity of the biosynthetic enzymes for each of the eight identified HMP-derived pathways (FIG. 2A). A and C enzyme activity was measured for defined fatty acid and amines, respectively, to determine the substrates that each pathway prefers to incorporate for FAA production (FIG. 2B-2C). A panel of 25 fatty acids and 53 biogenic amines derived from Clostridia, human cells, and human diet that are known to be abundant in the human gut was selected (FIG. 2D).^43,44,45,46,47 For consistency, FAA product level, instead of PPi level, was used as the metric of A activity for the panel assay by adding tryptamine for all query fatty acid substrates to measure the level of C-independent FAA formation based on the UV absorbance of the indole chromophore (FIG. 2B). […]
For adenylation activity, adenylation and thiolation proteins (no condensation) were added with the query fatty acid substrate(s) and tryptamine as a UV-active chromophore. […] The reaction was mixed with equal volume of methanol, spun down at 21,000 g for 1 min, and analyzed with the same analytical LCMS run as described previously. […]

[3] = biological target: EBI2/GPR183 (Homo sapiens, UniProt P32249); test: Cell-based β-arrestin reporter assay (DiscoverX), EBI2 antagonist mode: panel at 10 uM and concentration-response; conditions: for inhibition on EBI2 (concentration-response, in words): antagonist mode against 7α,25-diHC; for pIC50: in the presence of native agonist 7α,25-dihydroxycholesterol at 0.232 uM (EC80), ten concentrations 100 to 0.0051 uM, read-out: IC50, inhibitory activity on EBI2
Protocol: FIGS. 31A-31H show GPCR activity assay of lauroyl tryptamine. a, Cell-based β-arrestin reporter assay (DiscoveRx) with a panel of 168 GPCRs with known ligands in agonist mode and antagonist mode, and also 73 orphan GPCRs in agonist mode at 10 uM. Agonist mode measures % activity of target GPCR by the compound, relative to the baseline value (0% activity) and maximum value with a known ligand, or twofold increase over baseline for orphan GPCR (100% activation). Antagonist mode measures % inhibition of target GPCR by the compound in the presence of a known ligand, relative to the value at the EC80 (0% inhibition) and basal value (100% inhibition). […] EBI2 antagonist activity (δ1%) is marked with an asterisk (*). b, Concentration-dose response curves of the inhibitory activity of lauroyl tryptamine, tryptamine, and lauric acid on EBI2 in the presence of the native agonist 7α,25-dihydroxycholesterol (7a,25-diHC) at 0.232 uM (EC80). […] IC50>100 uM for all three compounds. d, Concentration-dose response curves of the stimulatory activity of lauroyl tryptamine, tryptamine, and lauric acid on GPR132. […] For b, c, d, the curves span ten concentration points in duplicates from 100 to 0.0051 uM, with the error bar being the s.d. from duplicates. e, MS chromatogram (EIC ESI+[M+H]^+ m/z of lauroyl tryptamine, theoretical=343.2744, experimental=[…]) of the in vivo extract of E. rectale in RCM media (with no fed substrates). The samples are injected alongside a chemically synthesized and structurally verified standard. The * denotes lauroyl tryptamine. The production titer was determined to be 0.04 mg/L. f, Product titer of fatty acyl tryptamine from the in vivo extract of E. rectale in RCM, when fed with exogenous fatty acid (lauric acid, linoleic acid, oleic acid, docosahexaenoic acid, or α-linolenic acid). g, Mapping of human gut metatranscriptomic reads from subject subX316701492 (accession: SRX247340) onto a 80 kb region of the E. rectale genome centered on the FAA pathway (darker arrows, labeled “FAA”). The mean coverage of the 80 kb segment was 0.8 (SD=3.3), while the mean coverage of the FAA pathway by itself was 1.5 (SD=1.1). Housekeeping genes within this segment include tRNA synthetase (tR), carbohydrate metabolism (CM), and sugar transporter (ST) genes. h, Immunological and development role of the EBI2-oxysterol axis and its suppression by E. rectale-derived lauroyl tryptamine to possibly protect against IBD.
FAAs are known to modulate diverse biological functions by interacting with human GPCRs. The products of the FAA screen are either known GPCR ligands or appear to structurally mimic these molecules (FIG. 30). The FAAs were analyzed for activity against a panel of known and orphan human GPCRs using the DiscoverX platform. […]

[4] = biological target: P2RY4 (Homo sapiens, UniProt P51582); test: Cell-based β-arrestin reporter assay (DiscoverX), P2RY4 antagonist mode: panel at 10 uM and concentration-response; conditions: in the presence of native agonist UTP at 2.79 uM (EC80); ten concentrations 100 to 0.0051 uM; read-out: IC50, inhibitory activity on P2RY4
Protocol: FIGS. 31A-31H show GPCR activity assay of lauroyl tryptamine. a, Cell-based β-arrestin reporter assay (DiscoveRx) with a panel of 168 GPCRs with known ligands in agonist mode and antagonist mode, and also 73 orphan GPCRs in agonist mode at 10 uM. Agonist mode measures % activity of target GPCR by the compound, relative to the baseline value (0% activity) and maximum value with a known ligand, or twofold increase over baseline for orphan GPCR (100% activation). Antagonist mode measures % inhibition of target GPCR by the compound in the presence of a known ligand, relative to the value at the EC80 (0% inhibition) and basal value (100% inhibition). […] The production titer was determined to be 0.04 mg/L. f, Product titer of fatty acyl tryptamine from the in vivo extract of E. rectale in RCM, when fed with exogenous fatty acid (lauric acid, linoleic acid, oleic acid, docosahexaenoic acid, or α-linolenic acid). g, Mapping of human gut metatranscriptomic reads from subject subX316701492 (accession: SRX247340) onto a 80 kb region of the E. rectale genome centered on the FAA pathway (darker arrows, labeled “FAA”). […]
(§1) FAAs are known to modulate diverse biological functions by interacting with human GPCRs. […] The FAAs were analyzed for activity against a panel of known and orphan human GPCRs using the DiscoverX platform. […]

[5] = biological target: T1, GPR132; test: Cell-based β-arrestin reporter assay (DiscoverX), GPR132 agonist mode: orphan panel at 10 uM and concentration-response
Protocol: FIGS. 31A-31H show GPCR activity assay of lauroyl tryptamine. a, Cell-based β-arrestin reporter assay (DiscoveRx) with a panel of 168 GPCRs with known ligands in agonist mode and antagonist mode, and also 73 orphan GPCRs in agonist mode at 10 uM. Agonist mode measures % activity of target GPCR by the compound, relative to the baseline value (0% activity) and maximum value with a known ligand, or twofold increase over baseline for orphan GPCR (100% activation). Antagonist mode measures % inhibition of target GPCR by the compound in the presence of a known ligand, relative to the value at the EC80 (0% inhibition) and basal value (100% inhibition). […] EBI2 antagonist activity (δ1%) is marked with an asterisk (*). b, Concentration-dose response curves of the inhibitory activity of lauroyl tryptamine, tryptamine, and lauric acid on EBI2 in the presence of the native agonist 7α,25-dihydroxycholesterol (7a,25-diHC) at 0.232 uM (EC80). […] IC50>100 uM for all three compounds. d, Concentration-dose response curves of the stimulatory activity of lauroyl tryptamine, tryptamine, and lauric acid on GPR132. […] For b, c, d, the curves span ten concentration points in duplicates from 100 to 0.0051 uM, with the error bar being the s.d. from duplicates. e, MS chromatogram (EIC ESI+[M+H]^+ m/z of lauroyl tryptamine, theoretical=343.2744, experimental=[…]) of the in vivo extract of E. rectale in RCM media (with no fed substrates). […] The production titer was determined to be 0.04 mg/L. f, Product titer of fatty acyl tryptamine from the in vivo extract of E. rectale in RCM, when fed with exogenous fatty acid (lauric acid, linoleic acid, oleic acid, docosahexaenoic acid, or α-linolenic acid). g, Mapping of human gut metatranscriptomic reads from subject subX316701492 (accession: SRX247340) onto a 80 kb region of the E. rectale genome centered on the FAA pathway (darker arrows, labeled “FAA”). […]
as §1

[6] = biological target: T2, NPSR1b (Homo sapiens, UniProt Q6W5P4); test: Cell-based β-arrestin reporter GPCR panel (DiscoverX) at 10 uM, NPSR1b; conditions: compound at 10 uM
T2 sequence (Q6W5P4 1-377 isoform Q6W5P4-4): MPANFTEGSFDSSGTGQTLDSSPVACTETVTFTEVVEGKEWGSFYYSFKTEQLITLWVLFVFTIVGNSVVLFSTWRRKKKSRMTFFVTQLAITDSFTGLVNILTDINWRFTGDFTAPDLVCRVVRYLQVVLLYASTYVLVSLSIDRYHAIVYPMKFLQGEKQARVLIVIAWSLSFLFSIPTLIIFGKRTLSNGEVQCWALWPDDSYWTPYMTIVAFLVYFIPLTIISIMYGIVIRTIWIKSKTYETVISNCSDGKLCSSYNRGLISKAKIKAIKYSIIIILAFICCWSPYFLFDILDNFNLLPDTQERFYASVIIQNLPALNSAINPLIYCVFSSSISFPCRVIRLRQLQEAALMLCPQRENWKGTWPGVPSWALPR
Protocol: (§2) Cell-based β-arrestin reporter assay (DiscoveRx) with a panel of 168 GPCRs with known ligands in agonist mode and antagonist mode, and also 73 orphan GPCRs in agonist mode at 10 uM. Agonist mode measures % activity of target GPCR by the compound, relative to the baseline value (0% activity) and maximum value with a known ligand, or twofold increase over baseline for orphan GPCR (100% activation). Antagonist mode measures % inhibition of target GPCR by the compound in the presence of a known ligand, relative to the value at the EC80 (0% inhibition) and basal value (100% inhibition).
(§3) FAAs are known to modulate diverse biological functions by interacting with human GPCRs. The products of the FAA screen are either known GPCR ligands or appear to structurally mimic these molecules (FIG. 30). The FAAs were analyzed for activity against a panel of known and orphan human GPCRs using the DiscoverX platform. The major compound from the four human gut metagenome-derived pathways (oleoyl dopamine, oleoyl tyramine, oleoyl aminovaleric acid, and lauroyl tryptamine) were chemically synthesized and screened at 10 uM on a panel of 168 known GPCRs covering 60 distinct receptors in both agonist and antagonist mode and 73 orphan GPCRs in agonist mode. […]

[7] = biological target: T3, PRLHR (Homo sapiens, UniProt P49683); test: Cell-based β-arrestin reporter GPCR panel (DiscoverX) at 10 uM, PRLHR; conditions: compound at 10 uM
T3 sequence (P49683 1-370): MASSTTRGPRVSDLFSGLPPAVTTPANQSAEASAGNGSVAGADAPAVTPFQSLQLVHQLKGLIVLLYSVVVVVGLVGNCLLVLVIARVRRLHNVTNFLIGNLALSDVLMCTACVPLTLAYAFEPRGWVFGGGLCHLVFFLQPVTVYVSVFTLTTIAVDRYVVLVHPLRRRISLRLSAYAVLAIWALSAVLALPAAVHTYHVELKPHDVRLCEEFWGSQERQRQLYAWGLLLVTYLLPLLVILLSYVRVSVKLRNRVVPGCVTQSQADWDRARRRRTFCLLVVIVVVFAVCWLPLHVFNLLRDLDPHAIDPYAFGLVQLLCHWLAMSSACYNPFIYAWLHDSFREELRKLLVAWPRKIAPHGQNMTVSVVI
Protocol: as §2, §3

[8] = biological target: PTGER4 (Homo sapiens, UniProt P35408); test: Cell-based β-arrestin reporter GPCR panel (DiscoverX) at 10 uM, PTGER4; conditions: antagonist mode, compound at 10 uM
Protocol: as §2, §3

[9] = agonist mode, ten concentrations 100 to 0.0051 uM, read-out: EC50, stimulatory activity on GPR132

EBI2/GPR183, sequence (P32249 whole entry): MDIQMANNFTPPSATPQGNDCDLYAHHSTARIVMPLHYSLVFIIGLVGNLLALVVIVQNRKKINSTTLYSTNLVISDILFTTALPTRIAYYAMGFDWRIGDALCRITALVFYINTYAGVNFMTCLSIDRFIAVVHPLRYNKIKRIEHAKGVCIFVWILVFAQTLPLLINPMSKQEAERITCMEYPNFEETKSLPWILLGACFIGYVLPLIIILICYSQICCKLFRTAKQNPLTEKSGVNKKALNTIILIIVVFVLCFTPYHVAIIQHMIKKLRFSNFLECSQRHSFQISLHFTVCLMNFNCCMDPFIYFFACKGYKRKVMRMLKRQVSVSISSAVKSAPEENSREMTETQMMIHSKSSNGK
P2RY4, sequence (P51582 whole entry): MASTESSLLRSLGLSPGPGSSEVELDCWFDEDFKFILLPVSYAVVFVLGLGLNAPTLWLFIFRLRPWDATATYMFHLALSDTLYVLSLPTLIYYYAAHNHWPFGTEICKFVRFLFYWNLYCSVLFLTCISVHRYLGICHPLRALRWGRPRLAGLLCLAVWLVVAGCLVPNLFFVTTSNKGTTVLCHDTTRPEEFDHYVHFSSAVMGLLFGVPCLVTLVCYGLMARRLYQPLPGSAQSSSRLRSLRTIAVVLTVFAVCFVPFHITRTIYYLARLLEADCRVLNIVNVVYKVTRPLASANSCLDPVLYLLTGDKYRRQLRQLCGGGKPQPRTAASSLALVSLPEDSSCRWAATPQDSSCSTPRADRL
PTGER4, sequence (P35408 whole entry): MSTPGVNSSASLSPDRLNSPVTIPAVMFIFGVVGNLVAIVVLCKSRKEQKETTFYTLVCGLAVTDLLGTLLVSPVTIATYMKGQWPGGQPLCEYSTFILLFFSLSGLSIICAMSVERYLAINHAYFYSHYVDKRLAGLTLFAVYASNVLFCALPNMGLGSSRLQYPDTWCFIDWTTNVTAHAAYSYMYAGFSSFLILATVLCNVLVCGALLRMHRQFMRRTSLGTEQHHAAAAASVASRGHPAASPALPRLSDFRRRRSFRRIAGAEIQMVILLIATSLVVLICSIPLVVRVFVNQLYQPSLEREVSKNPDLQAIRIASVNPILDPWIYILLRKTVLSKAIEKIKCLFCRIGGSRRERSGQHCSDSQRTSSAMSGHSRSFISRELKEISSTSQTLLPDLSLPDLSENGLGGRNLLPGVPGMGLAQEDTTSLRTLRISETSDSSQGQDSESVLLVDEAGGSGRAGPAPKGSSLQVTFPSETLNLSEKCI

Molecule: CCCCCCCCCCCCCC(O)CC(=O)NCC(=O)O (centres unmarked) [commendamine]
pEC50 [1]: 4.93

Molecule: CCCCCCCCCCCC(=O)O [lauric acid]
inhibition on EBI2 (concentration-response, in words) [3]: Neither lauric acid nor tryptamine showed inhibition
pIC50 [3]: < 4.00
pIC50 [4]: < 4.00
pEC50 [5, 9]: 4.60

Molecule: NCCc1c[nH]c2ccccc12 [tryptamine]
inhibition on EBI2 (concentration-response, in words) [3]: Neither lauric acid nor tryptamine showed inhibition
pEC50 [5]: < 4.00

Further lines, results first:

C protein enzymatic activity, fold difference with vs without condensation enzyme [2]: 2 fold
Molecule: N[C@@H](CCS)C(=O)O [homocysteine]

pIC50 [3]: 6.01
pIC50 [4]: < 4.00
pEC50 [5, 9]: 5.84
Molecule: CCCCCCCCCCCC(=O)NCCc1c[nH]c2ccccc12 [lauroyl tryptamine]

activity on NPSR1b in GPCR panel [6]: shares activity
activity on PRLHR in GPCR panel [7]: shares activity
Molecule: CCCCCCCC/C=C\CCCCCCCC(=O)NCCc1ccc(O)cc1 [oleoyl tyramine]

inhibition of PTGER4 in GPCR panel [8]: Inhibition was observed
Molecule: oleoyl aminovaleric acid

Source: US11441162B2, “Human gut microbiome-derived biosynthetic enzymes for production of fatty acid amides” (Massachusetts Institute of Technology, priority 2019, dated 2022)
